# Results published in patent US4618618A, “Compounds and compositions” (priority 1981, dated 1986).
# Where a name gives a salt, the structure may show the parent alone. Read-outs that look alike come from different tables or passages of the source.
# Experiments:
# liver fluke = settings: mature and immature liver fluke; cited from earlier work
# in vivo = settings: bovine, 10 mg/kg
# [1] = cited from earlier work
# helminth = settings: ruminants sheep and cattle; cited from earlier work
# [2] = Level of levamisole in the blood of cattle after injection (high pressure liquid chromatography)
# [3] = Level of nitroxynil in the blood of cattle after injection (high pressure liquid chromatography)
# [4] = tested on: Ostertagia, Trichostrongylus and Haemonchus; assay: Anthelmintic efficacy in infected sheep (parasite counts at slaughter); format: in vivo
# Description: To ensure that the compounds were tested in heavily infected animals sheep harbouring a heavy naturally acquired parasitic infection were chosen and further infected with larvae of the species Ostertagia, Trichostrongylus and Haemonchus. The infections were allowed to reach maturity. […] A second group of sheep, the controls, were injected with an aqueous solution of levamisole dihydrogen phosphate at a dose rate equivalent to 6 mg of levamisole base per kilogram of animal body weight.
# Half of the sheep in each group were slaughtered 7 days after treatment and the parasites in the abomasum, small intestine, large intestine and lungs were counted.
# [5] = bovine, in vivo
# [6] = cattle, injected solution in polyethylene glycol 200 (Example 2 (a)), 17 mg of the salt/kg, each of four animals
# [7] = compared with levamisole dihydrogen phosphate
structure (smiles),measurement,setting,value
"N#Cc1cc(I)c(O)c([N+](=O)[O-])c1 [nitroxynil, 4-cyano-2-iodo-6-nitrophenol]",activity against liver fluke,liver fluke,effective against both mature and immature liver fluke
N#Cc1cc(I)c(O)c([N+](=O)[O-])c1 [nitroxynil N-ethyl-D-glucamine salt],Tmax,in vivo,4 h
"c1ccc([C@H]2CN3CCSC3=N2)cc1 [levamisole, L-2,3,5,6-tetrahydro-6-phenylimidazo[2,1-b]thiazole]",base catalysed hydrolysis,[1],subject to base catalysed hydrolysis
same,activity as an anthelmintic agent relative to tetramisole,helminth,approximately twice as active as tetramisole
"N#Cc1cc(I)c(O)c([N+](=O)[O-])c1.c1ccc([C@H]2CN3CCSC3=N2)cc1 [Example 1, L-2,3,5,6-tetrahydro-6-phenylimidazo[2,1-b]thiazolium 4-cyano-2-iodo-6-nitrophenoxide]","level of levamisole in the blood 4 hours after the injection, % of the maximum level","[2]; cattle, injected solution in polyethylene glycol 200 (Example 2 (a)), 17 mg of the salt/kg, 4 hours",at least 50%
same,time to maximum level of levamisole in the blood,[2]; [6],approximately 2 hours
same,duration of the level of levamisole in the blood (in words),[2]; [7],maintained for a longer period of time
same,rise of blood level of levamisole to a maximum (in words),[2]; [7],much more slowly
same,rise of blood level of levamisole to a maximum (in words),"[2]; compared with levamisole dihydrogen phosphate, listed as nitroxynil salt of levamisole",more slowly
same,levamisole levels obtained in the blood (in words),[2]; parenteral administration,therapeutic levels
same,time to maximum level of nitroxynil in the blood,[3]; [6],approximately 24 hours
same,rise of blood level of nitroxynil to a maximum (in words),[3]; compared with nitroxynil N-ethyl-D-glucamine salt,much more slowly
same,nitroxynil levels obtained in the blood (in words),[3]; parenteral administration,therapeutic levels
same,eradication of the helminth infection,"[4]; sheep slaughtered 7 days after treatment, injected 14.5 mg of the salt/kg in polyethylene glycol 200",either completely or essentially completely eradicated
same,eradication of the helminth infection,"[4]; sheep slaughtered 28 days after treatment, injected 14.5 mg of the salt/kg in polyethylene glycol 200",either completely or essentially completely eradicated
"O=P(O)(O)O.c1ccc([C@H]2CN3CCSC3=N2)cc1 [levamisole dihydrogen phosphate, reference compound]",eradication of the helminth infection,"[4]; sheep slaughtered 7 days after treatment, injected aqueous solution, 6 mg levamisole base/kg",either completely or essentially completely eradicated
same,eradication of the helminth infection,"[4]; sheep slaughtered 28 days after treatment, injected aqueous solution, 6 mg levamisole base/kg",either completely or essentially completely eradicated
same,time to maximum level of levamisole in the blood,[5]; 6 mg/kg,≤ 1 h
same,course of the level of levamisole in the blood (in words),[5]; sc,quickly rises to a maximum and quickly declines
"c1ccc(C2CN3CCSC3=N2)cc1 (racemic) [tetramisole, D,L-2,3,5,6-Tetrahydro-6-phenylimidazo[2,1-b]thiazole]",base catalysed hydrolysis,[1],subject to base catalysed hydrolysis
